These results are taken from patent US5328906A, “0-(3-amino-2-hydroxypropyl)-hydroximic acid halides and process for preparing the same” (Biorex Kutato-Fejleszto KFT, priority 1993, dated 1994).

A short description of data set [1]: acute toxicity LD50 on Wistar rats. As to conditions: rat, in vivo, iv.
The next data set concerns diabetic aorta. The data set can be described thus: beta-blocking effect on diabetic (Streptosotocin treated) rat aorta spiral and/or ring preparate, noradrenalin contractions. Conditions: aorta spiral of diabetic animals treated with Streptosotocin. Here is the method:
(§1) The beta-blocking effect of the compounds according to the present invention was tested on rat aorta spiral and/or ring preparate <J. Pharmacol. Exp. Therap. 158, 531 (1967)>. The experimental diabetes was induced with Streptosotocin <2-(3-nitroso-3-methylureido)-2-deoxy-D-glucose>. The reaction was evaluated as positive when the alpha stimulating effect of the noradrenalin on the control preparate, i.e. that having not been treated with Streptosotocin, was not influenced, but protected on the diabetic aorta. In the tests carried out with the compounds according to the present invention a general selective effect occurred, manifesting in case of diabetic tests in a strong, in case of normal tests in the absence of or in the presence of only a slight beta-blocking effect.
Experiments were carried out to study whether on the aorta spiral preparates of diabetic animals treated with Streptosotocin the Inderal protects the contractions induced by noradrenalin. As control, animals previously not treated with Streptosotocin were used. The results obtained essentially conformed to those known from the literature <Amer. […] (Endocrinology. Vol. 93, No. 3, September 1973). […]

Data set [2] concerns control preparate (rat aorta). The data set can be described thus: beta-blocking effect on control (not Streptosotocin treated) rat aorta spiral and/or ring preparate, noradrenalin contractions. Conditions: aorta spiral of animals not treated with Streptosotocin (normal tests). Here is the method: as §1
Experiments were carried out to study whether on the aorta spiral preparates of diabetic animals treated with Streptosotocin the Inderal protects the contractions induced by noradrenalin. As control, animals previously not treated with Streptosotocin were used. The results obtained essentially conformed to those known from the literature <Amer. […] (Endocrinology. Vol. 93, No. 3, September 1973).

With `OC(CON=C(Cl)c1cccnc1)CN1CCCCC1` (stereo not drawn) [Example 5, O-(3-piperidino-2-hydroxy-propyl)-3-piridyl-hydroximic acid chloride], the LD50 (in general, the dose at which mortality reaches 50%) in data set [1] worked out at 110 mg/kg.

For the compound `CC(C)NCC(O)COc1cccc2ccccc12` (stereo not drawn) [Inderal, 1-isopropylamino-3-(naphtyloxy)-propan-2-ol], the “protection against the alpha stimulating effect (contractions) of noradrenalin” value is on record as “the alpha stimulating effect of noradrenalin was protected by the Inderal in diabetic tests” in the data set with diabetic aorta and “not in the normal tests” in data set [2].
